{"source": "patent US20250255850A1", "about": "“PHARMACEUTICAL COMPOSITIONS FOR TREATING NEUROLOGICAL CONDITIONS” (YISSUM RESEARCH DEVELOPMENT COMPANY OF THE HEBREW …, priority 2021, published 2025)", "key": {"[1]": {"test_system": "SHANK3 knockout mice", "assay": "Novel object recognition test, SHANK3 knockout mice (M1)", "type": "in vivo, mouse", "conditions": "7-NI IP 80 mg/kg/day for 10 days", "experimental": "(§1) Behavioral testing started after 2 hours of treatment.\n(§2) Novel object recognition (see, FIG. 4A): The novel object test for object recognition and memory takes place in a white open field arena (45×45 cm). The test involves a set of two unique novel objects, each about the size of a mouse, constructed from two different materials and non-uniform in shape. The test consisted of one 10-minute habituation session, a 5-minute familiarization session and a 5-minute recognition test, each video tracked (Noldus Ethovision). During the habituation, animals were allowed to freely explore an empty open field. At the end of the session, they were shifted from the open field to a place in a temporary clean holding cage for about 2 minutes. Two identical objects were placed on the median line at 10 cm from each wall and the animal was returned to the open field and allowed to explore the objects for 5 minutes before being returned to its home cage. Next day, one familiar object and one novel object were placed in the open field to the location where the identical objects were placed during the familiarization session and the mouse was allowed to explore them for a 5-minute recognition test. […] Familiarization and recognition sessions were scored for total time spent investigating each object, the number of object interactions and the latency of the first object interaction. […]"}, "[2]": {"conditions": "cited from earlier work"}, "[3]": {"test_system": "3-nitrotyrosine", "assay": "Confocal microscopy of 3-nitrotyrosine in cortical neurons, SHANK3 model mice", "type": "in vivo, mouse", "conditions": "cortical region, compared to neurons of untreated mice", "experimental": "FIGS. 3G-H present confocal microscopy images (FIG. 3G) and a quantitative bar graph (FIG. 3H) showing nitro-tyrosine in the cortical region of neurons of wild-type mice (WT), SHANK3 model mice (M1) and SHANK3 model mice treated with 7-NI (M1+7-NI).\n3-nitrotyrosine levels in were also evaluated by confocal microscopy of the cortical region in neurons of the tested mice, and the obtained data is presented in FIGS. 3G and 3H."}, "[4]": {"test_system": "Mutant mice (CNTNAP2 and SHANK3 mouse models)", "assay": "Novel object recognition test (NOR), 7-NI-treated mutant mice (Example 3)", "type": "in vivo", "conditions": "7-NI IP 80 mg/kg/day for 7 days; mutant mice vs vehicle", "experimental": "as §1, §2"}, "[5]": {"target": "neuronal NOS (Homo sapiens, UniProt P29475)", "sequence (P29475 whole entry, species assumed)": "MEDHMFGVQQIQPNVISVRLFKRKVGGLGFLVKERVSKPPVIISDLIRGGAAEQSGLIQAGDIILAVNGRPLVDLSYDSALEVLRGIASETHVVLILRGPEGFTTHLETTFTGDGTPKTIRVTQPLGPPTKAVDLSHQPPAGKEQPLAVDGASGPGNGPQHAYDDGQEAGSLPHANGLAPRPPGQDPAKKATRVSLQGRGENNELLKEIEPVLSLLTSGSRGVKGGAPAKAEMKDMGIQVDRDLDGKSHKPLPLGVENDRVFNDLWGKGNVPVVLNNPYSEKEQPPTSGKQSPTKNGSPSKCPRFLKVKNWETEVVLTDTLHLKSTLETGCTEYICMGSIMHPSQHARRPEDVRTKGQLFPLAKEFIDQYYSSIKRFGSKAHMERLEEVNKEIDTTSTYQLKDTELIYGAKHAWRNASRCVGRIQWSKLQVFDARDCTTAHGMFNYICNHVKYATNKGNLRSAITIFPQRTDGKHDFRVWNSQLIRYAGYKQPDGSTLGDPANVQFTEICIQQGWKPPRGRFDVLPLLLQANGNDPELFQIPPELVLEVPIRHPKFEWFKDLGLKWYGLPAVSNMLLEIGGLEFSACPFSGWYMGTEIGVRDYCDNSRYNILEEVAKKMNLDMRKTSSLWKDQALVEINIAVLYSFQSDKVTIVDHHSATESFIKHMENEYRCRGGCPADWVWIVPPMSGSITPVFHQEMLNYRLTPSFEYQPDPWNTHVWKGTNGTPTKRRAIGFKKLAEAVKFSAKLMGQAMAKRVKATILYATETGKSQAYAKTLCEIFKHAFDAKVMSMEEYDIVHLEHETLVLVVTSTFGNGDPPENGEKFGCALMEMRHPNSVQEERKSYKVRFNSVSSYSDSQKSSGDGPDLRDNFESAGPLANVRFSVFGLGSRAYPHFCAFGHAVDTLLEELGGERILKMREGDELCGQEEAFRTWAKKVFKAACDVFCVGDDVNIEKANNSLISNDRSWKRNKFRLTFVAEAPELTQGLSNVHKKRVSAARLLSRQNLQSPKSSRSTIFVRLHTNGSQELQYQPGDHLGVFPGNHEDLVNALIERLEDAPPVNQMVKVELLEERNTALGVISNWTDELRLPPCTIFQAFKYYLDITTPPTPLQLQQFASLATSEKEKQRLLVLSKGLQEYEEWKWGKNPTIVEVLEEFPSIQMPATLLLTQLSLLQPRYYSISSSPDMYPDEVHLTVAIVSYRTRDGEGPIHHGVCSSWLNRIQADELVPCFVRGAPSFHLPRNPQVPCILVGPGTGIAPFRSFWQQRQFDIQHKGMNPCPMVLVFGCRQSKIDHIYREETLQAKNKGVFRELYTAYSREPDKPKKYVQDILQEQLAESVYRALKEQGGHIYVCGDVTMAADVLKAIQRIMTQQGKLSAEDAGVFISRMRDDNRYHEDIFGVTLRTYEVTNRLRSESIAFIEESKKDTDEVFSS", "conditions": "Pharm Res., 2001, 18, 1607-1612; cited from earlier work"}}}
{"molecule": "O=[N+]([O-])c1cccc2cn[nH]c12", "note": "[7-NI, 7-nitroindazole]", "values": [{"measurement": "preference for the novel object (NOR test)", "setting": "[1]; SHANK3 knockout mice aged 6 weeks", "result": "exhibited a significant preference for the novel object over the familiar one"}, {"measurement": "memory (novel object recognition) in aged mice", "setting": "[1]; SHANK3 knockout mice aged 10 months", "result": "restored"}, {"measurement": "solubility in aqueous medium", "setting": "[2]", "result": "very low solubility"}, {"measurement": "reduction of 3-nitrotyrosine levels in the neurons", "setting": "[3]", "result": "about 50%"}, {"measurement": "preference for the novel object (NOR test)", "setting": "[4]", "result": "exhibited a significant preference for the novel object over the familiar object"}, {"measurement": "selectivity for neuronal NOS", "setting": "[5]", "result": 10, "unit": "fold"}]}
